{"source": "paper PMC8538004", "about": "“Identification of a Novel Neuropeptide S Receptor Antagonist Scaffold Based on the SHA-68 Core” (Pharmaceuticals, 2021)", "key": {"[1]": {"test_system": "NPS-mediated hyperlocomotion", "assay": "NPS-stimulated locomotor activity (open field)", "assay_type": "in vivo, C57/Bl6 mice", "description": "Male mice between 8 and 12 weeks of age were used for all tests. C57/Bl6 were obtained from the former NCI colony maintained by Charles River. Animals were housed with ad libitum access to food and water on a 12:12 h light:dark cycle with lights on at 06:00. Experiments were conducted between the hours of 09:00 and 15:00. All experiments were approved by the Institutional Animal Care and Use Committee of the State University of New York at Buffalo (PMY09073N) and conducted in accordance with the National Institutes of Health Guide for the Care and Use of Laboratory animals.\nMice were anesthetized using ketamine (100 mg/kg) and xylazine (5 mg/kg) and were secured to a stereotaxic frame once the appropriate plane of anesthesia was reached. An incision was made in order to expose the skull. […]\nOpen-field testing was conducted in clear plexiglass cages measuring 40 × 40 cm^2 interfaced by a grid array of infrared beams connected to a computer system which tracked and quantified the animals’ location and movements (OMNITECH Instruments, Columbus, OH, USA). […]\nStatistical analyses were performed by ANOVA with Tukey’s multiple comparisons test analysis within GraphPad Prism 8 software (GraphPad Software, San Diego, CA, USA). All results are expressed as mean values ± SEM."}, "[2]": {"assay": "Glutathione incubation assay", "assay_type": "physicochemical", "conditions": "2 mM compound, 18 mM glutathione, MeCN/water, up to 48 h, LC/MS", "description": "For the glutathione incubation assay, 20 mM stock solutions of compound 14b in MeCN (400 µL) and glutathione GSH in MeCN: Milli-Q H2O (10 mL, 1: 1, v/v) were prepared in separate scintillation vials. To prepare the incubation solution, 100 µL of 14b solution and 900 µL of GSH solution were taken in a clean HPLC vial. The final concentrations of 14b and GSH were 2 mM and 18 mM, respectively. In addition, a 2 mM reference solution of 14b was prepared by adding 100 µL of 14b stock solution to an HPLC vial containing 900 µL of MeCN: H2O (1:1), and an 18 mM reference solution of GSH was prepared by adding 900 µL of GSH stock solution to an HPLC vial containing 100 µL of MeCN.\nLow-resolution mass spectra were obtained using an Agilent InfinityLab MSD single quadrupole mass spectrometer system (ESI). […] Chromatograms were detected using 254 and 280 nm wavelengths with 5 µL injections and data were processed using a general walkup method*.\n*LC/MS Walkup Method: an Agilent InfinityLab MSD single quadrupole mass spectrometer equipped with an API-ES and an Agilent Infinity II 1260 HPLC equipped with an Agilent Infinity 1260 variable wavelength detector and a Phenomenex Synergi […] Hydro-RP 100A C18 30 × 2 mm column. […] MS Method: using atmospheric pressure ionization–electrospray, positive and negative ions were monitored in the range of 70–700 or 200–2000 (for compounds with a MW > 700)."}}, "note": "“Also recorded” adds a separate entry of the source."}
{"smiles": "CC(C)CC1(c2ccccc2)OC(=O)C2=C1CN(C(=O)NCc1ccccc1)CC2", "note": "(single isomer, unassigned; (+)) [Compound 14b, (+) N-benzyl-3-(2-methylpropyl)-1-oxo-3-phenyl-1H,3H,4H,5H,6H,7H-furo[3,4-c]pyridine-5-carboxamide]", "values": [{"measurement": "Effect on NPS-mediated hyperlocomotion", "setting": "[1]; 3 mg/kg i.p. pretreatment, NPS 0.3 nmol ICV, total distance first 10 min, Veh-NPS vs. 14b-NPS p = 0.0389", "value": "attenuated; also recorded: able to block; also recorded: sufficient to significantly decrease; also recorded: significantly decreased"}, {"measurement": "Effect on locomotion on its own", "setting": "[1]; 3 mg/kg i.p., aCSF ICV, Veh-aCSF vs. 14b-aCSF p = 0.8199", "value": "did not decrease locomotion"}, {"measurement": "Glutathione adduct formation", "setting": "[2]", "value": "No glutathione adduct was identified; also recorded: stable"}]}
